Broadly, the Ki is the dissociation constant of the complex between target and ligand, obtained from inhibition or displacement.

In assay [1] the target is T1, human a-thrombin (Homo sapiens, UniProt P00734).
T1 construct: human a-thrombin
In words: In vitro assay for determining proteinase inhibition: human a-thrombin. The class given is biochemical. The note with it: for relative activity of diastereomers in a thrombin inhibition assay: compared with the other diastereomer. Here is the method: Assays of human a-thrombin and bovine trypsin were performed at 25° C. in 0.05M TRIS buffer pH 7.4, 0.15M NaCl, 0.1% PEG. Trypsin assays also contained 1 mM CaCl2.
Concentrations of stock solutions of Z-GPR-afc were determined from measurements of absorbance at 380 nm of the 7-amino-4-trifluoromethyl coumarin produced upon complete hydrolysis of an aliquot of the stock solution by thrombin.
Activity assays were performed by diluting a stock solution of substrate at least tenfold to a final concentration ≥0. I Km into a solution containing enzyme or enzyme equilibrated with inhibitor. Times required to achieve equilibration between enzyme and inhibitor were determined in control experiments. Initial velocities of product formation in the absence (Vo) or presence of inhibitor (Vi) were measured. Assuming competitive inhibition, and that unity is negligible compared Km /[S], […] (where [S], [I], and e respectively represent the total concentrations, of substrate, inhibitor and enzyme), the equilibrium constant (Ki) for dissociation of the inhibitor from the enzyme can be obtained from the dependence of Vo /Vi on [I] shown in equation 1.

Assay [2] has as its system thrombotic occlusion of the right carotid artery. Kind of assay: In vivo rat ferric chloride assay measuring thrombotic occlusion. To be noted: FeCl3, rats. Set-up: species or system Male Sprague-Dawley rats. Here is the method:
Applicants have conducted in vivo studies of the compounds claimed herein using the following rat ferric chloride assay.
In the assay used to determine in vivo activity of the thrombin inhibitors or the invention, Male Sprague-Dawley rats (body weights 200-350 grams) were anesthetized with dial-urethane solution (0.1 ml/100 gm body weight i.p.), and a lateral tail vein was cannulated with a 23 gauge needle connected to a 12 inch length of PE50 tubing. The tubing was attached to a 3-way valve by a tubing adapter. Saline (control) or test compound, as appropriate, was administered via the tail vein catheter. A tracheostomy was performed with a 0.75 inch length of PE205 tubing. The right carotid artery was exposed and a 1.3 mm diameter Doppler flow probe was placed on the vessel. Body temperature was maintained at 37° C. using a heat lamp.
Rats (8-10/group) were randomized to continuous intravenous infusions of saline or test compound administered via the tail vein at a rate of 0.028 ml/min. Treatment infusions were initiated 120 min before the placement of a 3 mm square piece of Whatman No. 1 filter paper saturated with 35% FeCl3 onto the exposed carotid artery distal to the flow probe. […] Time to occlusion was defined as the time from application of FeCl3 to thrombotic occlusion of the vessel.

Setting [3] is: Table 1, read-out: Ki vs Thrombin.
Setting [4] is: Table 2, read-out: Ki vs thrombin.
Where [5] appears, read: Table 2, lower part, head Ki(nM) without target, read-out: Ki.
Where [6] appears, read: Table 1, part headed Ki (NM), read-out: Ki vs thrombin.

Like-named read-outs stand apart in the source and are kept apart here.

With `N[C@H]1CC[C@H](CNC(=O)[C@@H]2CCCN2C(=O)CCc2ccccc2)CC1` [PhCH2, H], the inhibition constant Ki in assay [1] (setting [3]) is 680 nM.
On the same count and under the same terms, with `N[C@H]1CC[C@H](CNC(=O)[C@@H]2CCCN2C(=O)CCC2CCCCC2)CC1` [C6 H11 CH2, H] the figure was 150 nM.
On to `N[C@H]1CC[C@H](CNC(=O)[C@@H]2CCCN2C(=O)[C@@H](Cc2ccccc2)NCC(=O)O)CC1`, for which the Ki in assay [1] (setting [4]) was 1.3 nM.
Consider `N[C@H]1CC[C@H](CNC(=O)[C@@H]2CCCN2C(=O)[C@H](NS(=O)(=O)Cc2ccccc2)C(c2ccccc2)c2ccccc2)CC1` (single isomer, unassigned) [Example 9 less polar diastereomer, trans-4-Amino-cyclohexylmethyl N-(benzylsulfonyl)-D and L-3,3-diphenylalanyl-L-proline amide], for which, in assay [1], the “relative activity of diastereomers in a thrombin inhibition assay” value was “more active isomer”.
Consider `N[C@H]1CC[C@H](CNC(=O)[C@@H]2CCCN2C(=O)[C@H](NCC(=O)O)C(c2ccc(Cl)cc2)c2ccc(Cl)cc2)CC1`, for which the inhibition constant (Ki) in assay [1] (setting [5]) amounted to 0.13 nM.
In the case of `N[C@H]1CC[C@H](CNC(=O)[C@@H]2CCCN2C(=O)[C@H](NCC(=O)O)C(c2ccccc2)c2ccccc2)CC1` [drawing 47], the Incidence of occlusion in assay [2] (i.v. dose 1 μg/kg/min) was 1/6; in assay [2] (i.v. dose 10 μg/kg/min), 0/6.
In the case of `N[C@H]1CC[C@H](CNC(=O)[C@@H]2CCCN2C(=O)[C@@H](CC2CCCCC2)NS(=O)(=O)CC(F)(F)F)CC1`, the Ki in assay [1] (setting [3]) was 3 nM.
Consider `N[C@H]1CC[C@H](CNC(=O)[C@@H]2CCCN2C(=O)CC(c2ccccc2)c2ccccc2)CC1`, for which the inhibition constant (Ki) in assay [1] (setting [4]) was 2 nM.
The same measure, in the same setting: with `CC1(C)C2CCC1(CS(=O)(=O)N[C@H](CC1CCCCC1)C(=O)N1CCC[C@H]1C(=O)NC[C@H]1CC[C@H](N)CC1)C(=O)C2` (some centres unmarked) the figure was 0.1 nM; with `CC(C)(C)OC(=O)N[C@@H](C(=O)N1CCC[C@H]1C(=O)NC[C@H]1CC[C@H](N)CC1)C(c1ccccc1)c1ccccc1`, 0.102 nM.
`C[C@@H](N[C@@H](C(=O)N1CCC[C@H]1C(=O)NC[C@H]1CC[C@H](N)CC1)C(c1ccccc1)c1ccccc1)C(=O)O` [drawing 41]: in assay [1] (setting [5]), the Ki turned out to be 0.05 nM.
`N[C@H]1CC[C@H](CNC(=O)[C@@H]2CCCN2C(=O)CCc2ccc(Cl)c(Cl)c2)CC1` [3,4-Cl2PhCH2, H]: the Ki in assay [1] (setting [3]) is 414 nM.
In the case of `N[C@@H](C(=O)N1CCC[C@H]1C(=O)NC[C@H]1CC[C@H](N)CC1)C(c1ccccc1)c1ccccc1` (single isomer, unassigned) [Example 7 less polar diastereomer, trans-4-Aminocyclohexylmethyl L- and D-(3,3)-diphenyl alanyl-L-proline amide], the “relative activity of diastereomers in a thrombin inhibition assay” value in assay [1] is reported as “more active isomer”.
Turning to `C[C@@H](N[C@@H](C(=O)N1CCC[C@H]1C(=O)NC[C@H]1CC[C@H](N)CC1)C(c1ccccc1)c1ccccc1)C(=O)O` [drawing 48], the Incidence of occlusion in assay [2] (i.v. dose 1 μg/kg/min) is recorded as 1/6; in assay [2] (i.v. dose 10 μg/kg/min), 0/6.
Regarding `CN[C@H](CC1CCCCC1)C(=O)N1CCC[C@H]1C(=O)NC[C@H]1CC[C@H](N)CC1`, the inhibitory constant (Ki) in assay [1] (setting [3]) turned out to be 2.3 nM.
Regarding `CC(C)(C)OC(=O)N[C@@H](C(=O)N1CCC[C@H]1C(=O)NC[C@H]1CC[C@H](N)CC1)C(OC(C)(C)C)c1ccccc1` (some centres unmarked), the inhibition constant (Ki) in assay [1] (setting [3]) came to 200 nM.
On to `CC(C)(C)OC(=O)N[C@H](CC1CCCCC1)C(=O)N1CCC[C@H]1C(=O)NC[C@H]1CC[C@H](N)CC1`, for which the inhibition constant (Ki) in assay [1] (setting [6]) stood at 12 nM.
Take `N[C@H]1CC[C@H](CNC(=O)[C@@H]2CCCN2C(=O)[C@H](O)Cc2ccccc2)CC1`: the Ki in assay [1] (setting [3]) came to 63 nM.
With `N[C@H](Cc1cccnc1)C(=O)N1CCC[C@H]1C(=O)NC[C@H]1CC[C@H](N)CC1`, the Ki in assay [1] (setting [3]) stood at 30 nM.
As to `N[C@H]1CC[C@H](CNC(=O)[C@@H]2CCCN2C(=O)[C@H](NCC(=O)O)C(c2ccccc2)c2ccccc2)CC1` [drawing 39], the inhibitory constant (Ki) in assay [1] (setting [5]) is 0.17 nM.
Turning to `N[C@H]1CC[C@H](CNC(=O)[C@@H]2CCCN2C(=O)C2(O)c3ccccc3Sc3ccccc32)CC1`, in assay [1], the affinity, expressed as Ki, was 3 nM.
Regarding `N[C@H]1CC[C@H](CNC(=O)[C@@H]2CCCN2C(=O)[C@@H](Cc2ccccc2)NC(=O)OCc2ccncc2)CC1`, the Ki in assay [1] (setting [6]) was found to be 15 nM.
For `CC(C)(C)OC(=O)N[C@H](Cc1ccccc1)C(=O)N1CCC[C@H]1C(=O)NC[C@H]1CC[C@H](N)CC1`, the Ki in assay [1] (setting [3]) came to 9.4 nM.
With `CC(C)(C)OC(=O)N[C@H](CCc1ccccc1)C(=O)N1CCC[C@H]1C(=O)NC[C@H]1CC[C@H](N)CC1`, in assay [1] (setting [6]), the inhibition constant Ki is 50 nM.
In the case of `N[C@H]1CC[C@H](CNC(=O)[C@@H]2CCCN2C(=O)C2Cc3ccccc3CN2)CC1` (some centres unmarked), the inhibitory constant (Ki) in assay [1] (setting [3]) amounted to 152 nM.
The same measure, in the same setting: with `CS(=O)(=O)N[C@H](Cc1ccccc1)C(=O)N1CCC[C@H]1C(=O)NC[C@H]1CC[C@H](N)CC1` [PhCH2, CH3 SO2 NH] the figure was 17 nM.
Take `CC(C)(C)C[C@@H](NS(=O)(=O)Cc1ccccc1)C(=O)N1CCC[C@H]1C(=O)NC[C@H]1CC[C@H](N)CC1`: the Ki in assay [1] (setting [4]) is 0.4 nM.
For `N[C@H]1CC[C@H](CNC(=O)[C@@H]2CCCN2C(=O)[C@@H](Cc2c[nH]c3ccccc23)NC(=O)OCc2ccccc2)CC1`, the Ki in assay [1] (setting [6]) was found to be 16 nM.
For `N[C@H](Cc1ccccc1)C(=O)N1CCC[C@H]1C(=O)NC[C@H]1CC[C@H](N)CC1` [PhCH2, NH2], the inhibitory constant (Ki) in assay [1] (setting [3]) was 3.4 nM.
Take `N[C@H]1CC[C@H](CNC(=O)[C@@H]2CCCN2C(=O)C2COc3ccccc3O2)CC1` (some centres unmarked): in assay [1] (setting [5]), the Ki came out at 55 nM.
Regarding `CC(C)(C)C[C@@H](NC(=O)OCc1ccccc1)C(=O)N1CCC[C@H]1C(=O)NC[C@H]1CC[C@H](N)CC1` [CbzNH, CH2 -tBu], the Ki in assay [1] (setting [6]) was determined as 2.3 nM.
Regarding `CN[C@H](Cc1ccc(Cl)c(Cl)c1)C(=O)N1CCC[C@H]1C(=O)NC[C@H]1CC[C@H](N)CC1` [3,4-Cl2PhCH2, CH3 NH], the Ki in assay [1] (setting [3]) is 2.9 nM.
On to `CC(C)(C)OC[C@@H](NC(=O)OC(C)(C)C)C(=O)N1CCC[C@H]1C(=O)NC[C@H]1CC[C@H](N)CC1` [BocNH, CH2 O-tBu], for which the Ki in assay [1] (setting [6]) is 6 nM.
Regarding `N[C@H](Cc1ccc2ccccc2c1)C(=O)N1CCC[C@H]1C(=O)NC[C@H]1CC[C@H](N)CC1`, in assay [1] (setting [3]), the inhibition constant Ki came out at 27 nM.
Take `CC(=O)N1CCC[C@H]1C(=O)NC[C@H]1CC[C@H](N)CC1` [H, H]: in assay [1] (setting [3]), the Ki was more than 10000 nM.
As for `CC(C)(C)OC(=O)N[C@@H](C(=O)N1CCC[C@H]1C(=O)NC[C@H]1CC[C@H](N)CC1)c1ccccc1`, the Ki in assay [1] (setting [6]) was found to be 6.8 nM.
`N[C@H]1CC[C@H](CNC(=O)[C@@H]2CCCN2C(=O)[C@@H](Cc2ccccc2)NC(=O)OCc2ccccc2)CC1`: in assay [1] (setting [3]), the Ki was 3.7 nM.
Same read-out and setting: with `CC(=O)N[C@H](Cc1ccccc1)C(=O)N1CCC[C@H]1C(=O)NC[C@H]1CC[C@H](N)CC1` the figure was 170 nM.
`N[C@H]1CC[C@H](CNC(=O)[C@@H]2CCCN2C(=O)C2(O)c3ccccc3-c3ccccc32)CC1`: the inhibitory constant (Ki) in assay [1] (setting [5]) was 1.5 nM.
As for `N[C@@H](C(=O)N1CCC[C@H]1C(=O)NC[C@H]1CC[C@H](N)CC1)C(c1ccccc1)c1ccccc1`, the inhibition constant (Ki) in assay [1] (setting [4]) worked out at 0.12 nM.
In the case of `N[C@H](Cc1ccc(Cl)c(Cl)c1)C(=O)N1CCC[C@H]1C(=O)NC[C@H]1CC[C@H](N)CC1` [3,4-Cl2PhCH2, NH2], the inhibition constant Ki in assay [1] (setting [3]) turned out to be 1.5 nM.
Consider `CC(C)(C)OC[C@@H](NS(=O)(=O)CC12CCC(CC1=O)C2(C)C)C(=O)N1CCC[C@H]1C(=O)NC[C@H]1CC[C@H](N)CC1` (some centres unmarked), for which, in assay [1] (setting [4]), the Ki was determined as 0.05 nM.
For `CC(C)(C)OC(=O)N[C@@H](C(=O)N1CCC[C@H]1C(=O)NC[C@H]1CC[C@H](N)CC1)[C@@H](OC(C)(C)C)c1ccccc1`, in assay [1] (setting [3]), the Ki turned out to be 8 nM.
In turn, `N[C@H]1CC[C@H](CNC(=O)[C@@H]2CCCN2C(=O)[C@@H](Cc2ccccc2)NS(=O)(=O)Cc2ccccc2)CC1` registered a Ki in assay [1] of 0.4 nM.
With `N[C@H]1CC[C@H](CNC(=O)[C@@H]2CCCN2C(=O)[C@@H](Cc2ccccc2)NCCc2ccccc2)CC1`, the inhibition constant Ki in assay [1] (setting [3]) stood at 4 nM.
